For test [1], the target named is T1, human recombinant histamine H2 receptor (Homo sapiens, UniProt P25021).
T1 construct: expressed in transfected cells; host or cells: CHO-K1 cells
Description: Histamine H2 radioligand binding ([125I]Aminopotentidine). The following applies: compound at 1 μM; read-out: Histamine Binding (1 μM) H2, percent inhibition of specific binding. As to the method:
To evaluate in radioligand binding assays the activity of compounds of the invention, human recombinant histamine H2 receptor expressed in Chinese hamster ovary (CHO) K1 cells (Ruat, M., Proc. Natl. Acad. Sci. USA. 87(5):1658, 1990) in a 50 mM Phosphate buffer, pH 7.4 was used. Compounds of the invention were incubated with 0.1 nM [^125I]Aminopotentidine for 120 min. at 25° C. Non-specific binding was estimated in the presence of 3 μM Tiotidine. Receptor proteins were filtered and washed, the filters were then counted to determine [^125I]Aminopotentidine specifically bound. Compounds were screened at 1 μM or lower, using 1% DMSO as vehicle. Biochemical assay results are presented as the percent inhibition of specific binding in Table 6.

In test [2] the target is T2, human recombinant dopamine D2L receptor (Homo sapiens, UniProt P14416).
T2 construct: expressed in transfected cells; host or cells: CHO cells
T2 sequence (P14416 whole entry): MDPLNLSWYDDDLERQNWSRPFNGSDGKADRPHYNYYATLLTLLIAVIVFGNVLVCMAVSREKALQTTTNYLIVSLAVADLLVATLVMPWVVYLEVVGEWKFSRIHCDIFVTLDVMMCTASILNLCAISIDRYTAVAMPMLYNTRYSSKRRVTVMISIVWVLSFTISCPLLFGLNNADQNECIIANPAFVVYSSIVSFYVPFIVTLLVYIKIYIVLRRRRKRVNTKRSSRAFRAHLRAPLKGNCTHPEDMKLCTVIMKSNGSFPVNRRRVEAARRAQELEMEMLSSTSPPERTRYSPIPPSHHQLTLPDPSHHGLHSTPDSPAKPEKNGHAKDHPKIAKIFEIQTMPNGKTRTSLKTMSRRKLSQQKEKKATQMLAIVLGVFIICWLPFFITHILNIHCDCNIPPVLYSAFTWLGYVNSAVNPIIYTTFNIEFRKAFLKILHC
In words: Dopamine D2L radioligand binding ([3H]Spiperone). The following applies: compound at 1 μM; read-out: Dopamine (1 μM) D2L, percent inhibition of specific binding. As to the method: To evaluate in radioligand binding assays the activity of compounds of the invention, human recombinant dopamine D2L receptor expressed in Chinese hamster ovary (CHO) cells (Grandy, D. K. et al. Proc. Natl. Acad. Sci. USA. 86:9762, 1989; Hayes, G. et al., Mol. Endocrinol. 6:920, 1992) in a modified Tris-HCl buffer (50 mM Tris-HCl, pH 7.4, 1.4 mM Ascorbic Acid, 0.001% BSA, 150 mM NaCl) was used. Compounds of the invention were incubated with 0.16 nM [^3H]Spiperone for 120 min. at 25° C. Non-specific binding was estimated in the presence of 10 μM Haloperidol. Receptor proteins were filtered and washed, the filters were then counted to determine [^3H]Spiperone specifically bound. Compounds were screened at 1 μM or lower, using 1% DMSO as vehicle. Biochemical assay results are presented as the percent inhibition of specific binding in Table 5.

Test [3] concerns the target T3, human recombinant serotonin (5-Hydroxytryptamine) 5-HT6 receptor (Homo sapiens, UniProt P50406).
T3 construct: expressed in transfected cells; host or cells: human HeLa cells
In words: Serotonin 5-HT6 radioligand binding ([3H]LSD). The following applies: compound at 1 μM; read-out: Serotonin (1 μM) 5-HT6, percent inhibition of specific binding. On the procedure: To evaluate in radioligand binding assays the activity of compounds of the invention, human recombinant serotonin (5-Hydroxytryptamine) 5-HT6 receptor expressed in human HeLa cells (Monsma, F. J. Jr. et al., Mol. Pharmacol. 43:320, 1993) in a modified Tris-HCl buffer (50 mM Tris-HCl, pH 7.4, 150 mM NaCl, 2 mM Ascorbic Acid, 0.001% BSA) was used. Compounds of the invention were incubated with 1.5 nM [3H]Lysergic acid diethylamide (LSD) for 120 min. at 37° C. Non-specific binding was estimated in the presence of 5 μM Serotonin (5-HT). Receptor proteins were filtered and washed, the filters were then counted to determine [3H]LSD specifically bound. Compounds were screened at 1 μM or lower, using 1% DMSO as vehicle. Biochemical assay results are presented as the percent inhibition of specific binding in Table 6.

In test [4] the target is T4, human recombinant serotonin (5-Hydroxytryptamine) 5-HT2C receptor (Homo sapiens, UniProt P28335).
T4 construct: expressed in transfected cells; host or cells: CHO-K1 cells
T4 sequence (P28335 33-458): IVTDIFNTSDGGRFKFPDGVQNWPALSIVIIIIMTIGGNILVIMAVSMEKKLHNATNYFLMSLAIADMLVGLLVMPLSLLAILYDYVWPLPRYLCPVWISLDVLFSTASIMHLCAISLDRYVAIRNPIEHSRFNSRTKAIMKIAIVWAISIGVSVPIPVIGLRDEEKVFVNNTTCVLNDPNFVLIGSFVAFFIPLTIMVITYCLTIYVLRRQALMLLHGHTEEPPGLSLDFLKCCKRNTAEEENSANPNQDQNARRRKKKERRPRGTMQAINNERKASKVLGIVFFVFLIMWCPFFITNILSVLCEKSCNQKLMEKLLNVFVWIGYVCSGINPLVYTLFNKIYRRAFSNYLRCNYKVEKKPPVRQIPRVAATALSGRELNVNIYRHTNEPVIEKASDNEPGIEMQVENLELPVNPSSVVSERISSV
In words: Serotonin 5-HT2C radioligand binding ([3H]Mesulergine). The following applies: compound at 1 μM; read-out: Serotonin (1 μM) 5-HT2C, percent inhibition of specific binding. As to the method: To evaluate in radioligand binding assays the activity of compounds of the invention, human recombinant serotonin (5-Hydroxytryptamine) 5-HT2C receptor expressed in Chinese hamster ovary (CHO-K1) cells (Wolf, W. A. and Schutz, J. S., J. Neurochem. 69:1449, 1997) in a modified Tris-HCl buffer (50 mM Tris-HCl, pH 7.4, 0.1% Ascorbic Acid, 10 μM Pargyline) was used. Compounds of the invention were incubated with 1 nM [^3H]Mesulergine for 60 min. at 25° C. Non-specific binding was estimated in the presence of 1 μM Mianserin. Receptor proteins were filtered and washed, the filters were then counted to determine [^3H]Mesulergine specifically bound. Compounds were screened at 1 μM or lower, using 1% DMSO as vehicle. Biochemical assay results are presented as the percent inhibition of specific binding in Table 6.

In test [5] the target is T5, human recombinant serotonin (5-Hydroxytryptamine) 5-HT2A receptor (Homo sapiens, UniProt P28223).
T5 construct: expressed in transfected cells; host or cells: CHO-K1 cells
T5 sequence (P28223 whole entry): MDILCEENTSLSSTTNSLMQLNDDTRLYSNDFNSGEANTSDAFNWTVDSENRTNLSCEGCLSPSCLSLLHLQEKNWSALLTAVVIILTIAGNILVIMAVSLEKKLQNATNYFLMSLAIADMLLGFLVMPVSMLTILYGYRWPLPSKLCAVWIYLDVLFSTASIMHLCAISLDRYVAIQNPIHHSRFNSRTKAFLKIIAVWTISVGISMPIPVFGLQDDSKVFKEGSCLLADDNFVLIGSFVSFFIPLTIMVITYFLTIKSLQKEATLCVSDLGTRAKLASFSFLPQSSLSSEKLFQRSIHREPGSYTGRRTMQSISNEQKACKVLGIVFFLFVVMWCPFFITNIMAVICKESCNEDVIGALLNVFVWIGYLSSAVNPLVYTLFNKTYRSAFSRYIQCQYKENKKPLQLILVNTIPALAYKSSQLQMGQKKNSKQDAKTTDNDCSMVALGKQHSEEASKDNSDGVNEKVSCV
In words: Serotonin 5-HT2A radioligand binding ([3H]Ketanserin). Particulars: compound at 1 μM; read-out: Serotonin (1 μM) 5-HT2A, percent inhibition of specific binding. On the procedure: To evaluate in radioligand binding assays the activity of compounds of the invention, human recombinant serotonin (5-Hydroxytryptamine) 5-HT2A receptor expressed in Chinese hamster ovary (CHO-K1) cells (Bonhaus, D. W. et al. Br. J. Pharmacol. 115:622, 1995; Saucier, C. and Albert, P. R., J. Neurochem. 68:1998, 1997) in a 50 mM Tris-HCl buffer, pH 7.4, was used. Compounds of the invention were incubated with 0.5 nM [^3H]Ketanserin for 60 min. at 25° C. Non-specific binding was estimated in the presence of 1 μM Mianserin. Receptor proteins were filtered and washed, the filters were then counted to determine [^3H]Ketanserin specifically bound. Compounds were screened at 1 μM or lower, using 1% DMSO as vehicle. Biochemical assay results are presented as the percent inhibition of specific binding in Table 6.

Test [6] concerns the target T6, human recombinant histamine H1 receptor (Homo sapiens, UniProt P35367).
T6 construct: expressed in transfected cells; host or cells: CHO cells
Description: Histamine H1 radioligand binding ([3H]Pyrilamine). The following applies: compound at 1 μM; read-out: Histamine Binding (1 μM) H1, percent inhibition of specific binding. On the procedure: To evaluate in radioligand binding assays the activity of compounds of the invention, human recombinant histamine H1 receptor expressed in Chinese hamster ovary (CHO) cells (De Backer, M. D. et al., Biochem. Biophys. Res. Comm. 197(3):1601, 1993) in a modified Tris-HCl buffer (50 mM Tris-HCl, pH 7.4, 2 mM MgCl2, 100 mM NaCl, 250 mM Sucrose) was used. Compounds of the invention were incubated with 1.2 nM [^3H]Pyrilamine for 180 min. at 25° C. Non-specific binding was estimated in the presence of 1 μM pyrilamine. Receptor proteins were filtered and washed, the filters were then counted to determine [^3H]Pyrilamine specifically bound. Compounds were screened at 1 μM or lower, using 1% DMSO as vehicle. Biochemical assay results are presented as the percent inhibition of specific binding in Table 6.

T1 sequence (P25021 whole entry): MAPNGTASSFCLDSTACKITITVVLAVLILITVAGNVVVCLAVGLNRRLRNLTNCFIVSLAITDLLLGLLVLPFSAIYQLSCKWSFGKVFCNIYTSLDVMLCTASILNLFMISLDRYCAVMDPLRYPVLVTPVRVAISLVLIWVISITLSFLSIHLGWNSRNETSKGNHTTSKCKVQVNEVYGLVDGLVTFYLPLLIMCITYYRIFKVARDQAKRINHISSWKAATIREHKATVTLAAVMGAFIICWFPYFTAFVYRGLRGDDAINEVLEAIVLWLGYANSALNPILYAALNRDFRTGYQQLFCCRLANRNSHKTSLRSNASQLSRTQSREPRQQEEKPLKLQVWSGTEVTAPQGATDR
T3 sequence (P50406 whole entry): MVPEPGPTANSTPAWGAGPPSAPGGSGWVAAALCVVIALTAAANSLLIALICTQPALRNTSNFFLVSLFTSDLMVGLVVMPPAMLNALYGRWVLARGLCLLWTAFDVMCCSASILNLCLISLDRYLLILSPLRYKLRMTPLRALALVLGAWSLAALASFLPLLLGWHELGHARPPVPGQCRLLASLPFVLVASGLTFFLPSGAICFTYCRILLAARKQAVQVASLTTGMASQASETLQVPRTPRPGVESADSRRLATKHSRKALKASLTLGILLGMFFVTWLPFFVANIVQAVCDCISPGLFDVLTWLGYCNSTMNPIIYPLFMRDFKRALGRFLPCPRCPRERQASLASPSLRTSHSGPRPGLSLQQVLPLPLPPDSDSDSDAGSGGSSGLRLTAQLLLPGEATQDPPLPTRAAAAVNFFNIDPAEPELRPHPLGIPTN
T6 sequence (P35367 whole entry): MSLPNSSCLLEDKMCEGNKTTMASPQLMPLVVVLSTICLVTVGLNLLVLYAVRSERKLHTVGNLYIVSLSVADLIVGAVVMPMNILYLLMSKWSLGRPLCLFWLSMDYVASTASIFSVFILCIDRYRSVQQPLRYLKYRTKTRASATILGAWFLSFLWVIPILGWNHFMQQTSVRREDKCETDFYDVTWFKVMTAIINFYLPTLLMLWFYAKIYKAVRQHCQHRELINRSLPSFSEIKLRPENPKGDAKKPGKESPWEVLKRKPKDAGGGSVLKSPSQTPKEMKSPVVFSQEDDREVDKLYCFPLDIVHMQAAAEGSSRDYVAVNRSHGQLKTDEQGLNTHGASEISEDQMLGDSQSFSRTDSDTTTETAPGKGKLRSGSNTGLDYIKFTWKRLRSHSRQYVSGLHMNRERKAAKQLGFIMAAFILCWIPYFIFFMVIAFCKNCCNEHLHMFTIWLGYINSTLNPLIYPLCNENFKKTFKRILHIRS

In the case of `C/C(=C\n1c2c(c3cc(Cl)ccc31)CCN(C)CC2)c1ccc(F)c(F)c1` [Compound No. 155, (E)-9-chloro-6-(2-(3,4-difluorophenyl)prop-1-enyl)-1,2,3,4,5,6-hexahydro-3-methylazepino[4,5-b]indole], the inhibition at 1 µM in test [1] turned out to be 92%; in test [2], 38%; in test [3], 101%; in test [4], 98%; in test [5] it was 99%; in test [6], 93%.
For `COc1ccc(/C(C)=C/n2c3c(c4cc(Cl)ccc42)CCN(C)CC3)cc1F` [Compound No. 157, (E)-9-chloro-6-(2-(3-fluoro-4-methoxyphenyl)prop-1-enyl)-1,2,3,4,5,6-hexahydro-3-methylazepino[4,5-b]indole], the inhibition at 1 µM in test [1] worked out at 93%; in test [2], 24%; in test [3] it was 78%; in test [4], 101%; in test [5] it was 98%; in test [6] it was 68%.
Turning to `C/C(=C\n1c2c(c3cc(C)ccc31)CCN(C)CC2)c1cccc(F)c1` [Compound No. 252, (E)-6-(2-(3-fluorophenyl)prop-1-enyl)-3,9-dimethyl-1,2,3,4,5,6-hexahydroazepino[4,5-b]indole], the inhibition at 1 µM in test [1] stood at 87%; in test [2] it was 19%; in test [3] it was 98%; in test [4], 87%; in test [5], 96%; in test [6], 93%.
Regarding `COc1ccc(C#Cn2c3c(c4cc(Cl)ccc42)CCN(C)CC3)cc1F` [Compound No. 283, 9-chloro-6-((3-fluoro-4-methoxyphenyl)ethynyl)-3-methyl-1,2,3,4,5,6-hexahydroazepino[4,5-b]indole], the inhibition at 1 µM came to 83% in test [1]; 12% in test [2]; 40% in test [3]; 100% in test [4]; 90% in test [5]; 12% in test [6].
Consider `C/C(=C\n1c2c(c3cc(C)ccc31)CCN(C)CC2)c1ccncc1` [Compound No. 253, (E)-3,9-dimethyl-6-(2-(pyridin-4-yl)prop-1-enyl)-1,2,3,4,5,6-hexahydroazepino[4,5-b]indole], for which the inhibition at 1 µM turned out to be 31% in test [1]; 55% in test [2]; 103% in test [3]; 101% in test [4]; 102% in test [5]; 32% in test [6].
With `C/C(=C\n1c2c(c3cc(C)ccc31)CCN(C)CC2)c1ccc(F)c(F)c1` [Compound No. 177, (E)-6-(2-(3,4-difluorophenyl)prop-1-enyl)-1,2,3,4,5,6-hexahydro-3,9-dimethylazepino[4,5-b]indole], the inhibition at 1 µM came out at 92% in test [1]; 25% in test [2]; 96% in test [3]; 99% in test [4]; 98% in test [5]; 93% in test [6].
As to `C/C(=C\n1c2c(c3cc(Cl)ccc31)CCN(C)CC2)c1ccccc1F` [Compound No. 243, (E)-9-chloro-6-(2-(2-fluorophenyl)prop-1-enyl)-3-methyl-1,2,3,4,5,6-hexahydroazepino[4,5-b]indole], the inhibition at 1 µM was 84% in test [1]; 32% in test [2]; 99% in test [3]; 102% in test [4]; 98% in test [5]; 93% in test [6].
As for `COc1ccc(/C(C)=C/n2c3c(c4cc(C)ccc42)CCN(C)CC3)cc1` [Compound No. 182, (E)-1,2,3,4,5,6-hexahydro-6-(2-(4-methoxyphenyl)prop-1-enyl)-3,9-dimethylazepino[4,5-b]indole], the inhibition at 1 µM in test [1] worked out at 92%; in test [2] it was 19%; in test [3], 96%; in test [4], 102%; in test [5] it was 101%; in test [6] it was 62%.
Regarding `C/C(=C/n1c2c(c3cc(Cl)ccc31)CCN(C)CC2)c1cccc(F)c1` [Compound No. 249, (Z)-9-chloro-6-(2-(3-fluorophenyl)prop-1-enyl)-3-methyl-1,2,3,4,5,6-hexahydroazepino[4,5-b]indole], the inhibition at 1 µM in test [1] came to 97%; in test [2], 35%; in test [3], 101%; in test [4], 98%; in test [5], 100%; in test [6] it was 98%.
For `C/C(=C\n1c2c(c3cc(C)ccc31)CCN(C)CC2)c1ccc(Cl)c(Cl)c1` [Compound No. 176, (E)-6-(2-(3,4-dichlorophenyl)prop-1-enyl)-1,2,3,4,5,6-hexahydro-3,9-dimethylazepino[4,5-b]indole], the inhibition at 1 µM in test [1] worked out at 95%; in test [2], 23%; in test [3], 74%; in test [4] it was 99%; in test [5], 99%; in test [6] it was 82%.

Values taken from patent US9481676B2, “Azepino[4,5-B]indoles and methods of use” (Medivation Technologies, Inc., priority 2008, dated 2016).
